Measured values published in US5384113A, “Stabilizers to prevent autoradiolysis of radiolabeled peptides and proteins” (priority 1993, dated 1995).

Tests used:
[1] = Stability (radiochemical purity) of 111In DTPA-octreotide solution at room temperature by reverse-phase HPLC with radiometric detector; format: physicochemical; conditions: alone or in combination with other stabilizers; summary of Examples 1-7
Protocol: (§1) To a lyophilized kit containing 10 μg DTPA-octreotide (N-[3,6,9,9-tetrakis(carboxymethyl)-3,6,9-triazanonanoyl]-D-phenylalanyl-L -hemicystyl-L-phenylalanyl-D-tryptophyl-L-lysyl-L-threonyl-L-hemicydyyl-L-t hreoninol cyclic (2→7) disulfide, MW=1394.60 gm/mol), 5.6 mg trisodium citrate dihydrate, and 0.4 mg citric acid monohydrate was added 1.0 ml of 0.02M HCl containing 4.70 mCi of ^111 In. The pH of the solution was 4.5. The solution was kept at room temperature and monitored for the amount of ^111 In DTPA-octreotide using reverse-phase HPLC and a Beckman 170 radiometric detector. […]
as §1, with “dihydrate,” for “dihydrate, and”, “monohydrate, and 1.0 mg inositol” for “monohydrate”, “6.04” for “4.70”, “The pH of the solution was 4.5.” left out

somatostatin receptors = conditions: variety of human tumors; cited from earlier work

Row | Compound | Prevention of radiolysis of radiolabeled peptides (stabilizer effect) [1] | Binding affinity to somatostatin receptors (somatostatin receptors)
1 | O=C(O)c1cc(O)ccc1O [gentisic acid, 2,5-dihydroxybenzoic acid] | very effective at preventing radiolysis | 
2 | C[C@@H](O)[C@@H]1NC(=O)[C@H](CCCCN)NC(=O)[C@@H](Cc2c[nH]c3ccccc23)NC(=O)[C@H](Cc2ccccc2)NC(=O)[C@@H](NC(=O)[C@H](N)Cc2ccccc2)CSSC[C@@H](C(=O)N[C@H](CO)[C@@H](C)O)NC1=O [octreotide] |  | very high binding affinity
